Values belong to the molecule of their own block, whether it stands above or below them.
Key:
[1] = Unbound brain-to-plasma concentration ratio in rat at iv dosed for 4 to 24 hrs by LC-MS/MS analysis; type: ADME, organism-based; conditions: time 4-24 hrs; for Kp uu: read-out: K(p,uu,brain)
[2] = Clearance in rat plasma at iv dosed for 4 to 24 hrs by LC-MS/MS analysis; type: ADME, organism-based; conditions: time 4-24 hrs
[3] = Unbound clearance in rat plasma at iv dosed for 4 to 24 hrs by LC-MS/MS analysis; type: ADME, organism-based; conditions: in vivo, time 4-24 hrs
[4] = Intrinsic clearance in human liver microsomes; type: ADME, Microsome; conditions: read-out: CLH
[5] = Intrinsic clearance in human Hepatocyte; type: ADME, cell-based; conditions: hepatocytes, read-out: CLH
[6] = AUCinfinity in rat at iv administration; type: ADME, organism-based; conditions: in vivo
[7] = AUCinfinity in mouse at iv administration; type: ADME, organism-based; conditions: in vivo
[8] = AUCinfinity in Cynomolgus monkey at iv administration; type: ADME, organism-based, Macaca fascicularis; conditions: in vivo
[9] = AUCinfinity in iv dosed dog; type: ADME, organism-based, Canis lupus familiaris; conditions: in vivo
[10] = Clearance in rat at iv administration; type: ADME, organism-based; conditions: in vivo
[11] = Clearance in Cynomolgus monkey at iv administration; type: ADME, organism-based, Macaca fascicularis; conditions: in vivo
[12] = Clearance in iv dosed dog; type: ADME, organism-based, Canis lupus familiaris; conditions: in vivo
[13] = Unbound clearance in rat at iv administration; type: ADME, organism-based; conditions: in vivo
[14] = Unbound clearance in mouse at iv administration; type: ADME, organism-based; conditions: in vivo
[15] = Unbound clearance in Cynomolgus monkey at iv administration; type: ADME, organism-based, Macaca fascicularis; conditions: in vivo
[16] = Unbound clearance in iv dosed dog; type: ADME, organism-based, Canis lupus familiaris; conditions: in vivo
[17] = Volume of distribution at steady state in rat at iv administration; type: ADME, organism-based; conditions: in vivo, read-out: Vdss
[18] = Volume of distribution at steady state in mouse at iv administration; type: ADME, organism-based; conditions: in vivo, read-out: Vdss
[19] = Volume of distribution at steady state in Cynomolgus monkey at iv administration; type: ADME, organism-based, Macaca fascicularis; conditions: in vivo, read-out: Vdss
[20] = Volume of distribution at steady state in iv dosed dog; type: ADME, organism-based, Canis lupus familiaris; conditions: in vivo, read-out: Vdss
[21] = Half life in rat at iv administration; type: ADME, organism-based; conditions: in vivo
[22] = Half life in mouse at iv administration; type: ADME, organism-based; conditions: in vivo
[23] = Half life in Cynomolgus monkey at iv administration; type: ADME, organism-based, Macaca fascicularis; conditions: in vivo
[24] = Half life in iv dosed dog; type: ADME, organism-based, Canis lupus familiaris; conditions: in vivo
[25] = Tmax in rat at po administration; type: ADME, organism-based; conditions: in vivo
[26] = Tmax in mouse at po administration; type: ADME, organism-based; conditions: in vivo
[27] = Tmax in Cynomolgus monkey at po administration; type: ADME, organism-based, Macaca fascicularis; conditions: in vivo
[28] = Tmax in po dosed dog; type: ADME, organism-based, Canis lupus familiaris; conditions: in vivo
[29] = Oral bioavailability in rat; type: ADME, organism-based; conditions: in vivo
[30] = Oral bioavailability in mouse; type: ADME, organism-based; conditions: in vivo
[31] = Oral bioavailability in Cynomolgus monkey; type: ADME, organism-based, Macaca fascicularis; conditions: in vivo
[32] = Oral bioavailability in dog; type: ADME, organism-based, Canis lupus familiaris; conditions: in vivo

Kp uu [1]: 0.2
clearance [2]: 0.576 L/h/kg
CL free [3]: 3.06 L/h/kg
SMILES: CC(C)Oc1nc2nc(C34COC(CF)(C3)C4)cn2cc1C(=O)Nc1cccn(C2CC2)c1=O

Kp uu [1]: 0.2
clearance [2]: 1.02 L/h/kg
CL free [3]: 16.9 L/h/kg
SMILES: COC[C@@]12CC[C@@](c3cn4cc(C(=O)Nc5cccn(C6CC6)c5=O)c(OC(C)C)nc4n3)(CO1)C2

K(p,uu,brain) ([1]; iv): 0.3
SMILES: Cc1cnc2c(NC(=O)c3cn4cc(C56COC(C)(C5)C6)nc4nc3OC(C)C)cnn2c1

Kp uu [1]: 0.4
SMILES: CC(C)Oc1nc2nc(C34COC(C)(C3)C4)cn2cc1C(=O)Nc1cccn([C@H]2C[C@H]2C)c1=O

Kp uu [1]: 0.1
clearance [2]: 1.98 L/h/kg
CL free [3]: 18.7 L/h/kg
SMILES: COC[C@@]12CC[C@@](c3cn4cc(C(=O)Nc5cccn([C@H]6C[C@H]6F)c5=O)c(OC(C)C)nc4n3)(CO1)C2

Kp uu [1]: 0.7
CLint scaled [4]: < 0.3 L/h/kg
CLint scaled [5]: 0.306 L/h/kg
AUC(0-inf) [6]: 1.04 µg·h/mL
AUC(0-inf) [7]: 1.02 µg·h/mL
AUC(0-inf) [8]: 1.13 µg·h/mL
AUC(0-inf) [9]: 1.4 µg·h/mL
clearance [10]: 0.852 L/h/kg
clearance [11]: 0.906 L/h/kg
clearance [12]: 0.762 L/h/kg
CL free [13]: 10.3 L/h/kg
CL free [14]: 14.4 L/h/kg
CL free [15]: 5.88 L/h/kg
CL free [16]: 4.56 L/h/kg
Vd [17]: 2.9 L/kg
Vd [18]: 1.5 L/kg
Vd [19]: 0.9 L/kg
Vd [20]: 1.4 L/kg
half-life [21]: 2.5 h
half-life [22]: 1.6 h
half-life [23]: 0.8 h
half-life [24]: 1.4 h
Tmax [25]: 0.25 h
Tmax [26]: 0.25 h
Tmax [27]: 1.2 h
Tmax [28]: 0.6 h
bioavailability [29]: 128%
bioavailability [30]: 92%
bioavailability [31]: 61%
bioavailability [32]: 89%
SMILES: CC(C)Oc1nc2nc(C34COC(C)(C3)C4)cn2cc1C(=O)Nc1cccn(C2CC2)c1=O

Kp uu [1]: 0.4
clearance [2]: 0.48 L/h/kg
CL free [3]: 5.28 L/h/kg
SMILES: CC(C)Oc1nc2nc(C34COC(C3)C4)cn2cc1C(=O)Nc1cccn(C2CC2)c1=O

Kp uu [1]: 0.5
clearance [2]: 1.25 L/h/kg
CL free [3]: 10.2 L/h/kg
SMILES: COCC12CC(c3cn4cc(C(=O)Nc5cccn(C6CC6)c5=O)c(OC(C)C)nc4n3)(CO1)C2

Kp uu [1]: 0.3
SMILES: CC(C)Oc1nc2nc(C34COC(C)(C3)C4)cn2cc1C(=O)Nc1cccn([C@H]2C[C@H]2F)c1=O (single isomer, unassigned)

Kp uu [1]: 0.2
clearance [2]: 0.762 L/h/kg
CL free [3]: 18.4 L/h/kg
SMILES: CC(C)Oc1nc2nc(C34CCC(C)(C3)OC4)cn2cc1C(=O)Nc1cccn([C@H]2C[C@H]2F)c1=O (single isomer, unassigned)

Kp uu [1]: 0.3
clearance [2]: 2.16 L/h/kg
CL free [3]: 18.6 L/h/kg
SMILES: CC(C)Oc1nc2nc([C@@]34CC[C@@](C)(C3)OC4)cn2cc1C(=O)Nc1cccn(C2CC2)c1=O (single isomer, unassigned)

Reference: ChEMBL document CHEMBL5506029 (J Med Chem, 2024)
